This is an account of results in patent US9340559B2, “Proteasome inhibitor delanzomib for use in the treatment of lupus” (Cephalon, Inc., priority 2011, dated 2016).

Type in all cases: in vivo, mouse
Assay [1] relates to MRL/lpr mice. The assay can be described thus: Lymphomegaly (enlarged lymph nodes), MRL/lpr mice. Conditions: for lymphomegaly decrease compared to vehicle: iv. On the procedure:
FIG. 4 depicts lymphomegaly for MRL/lpr mice across treatment groups for the study duration. MRL/lpr mice were treated as outlined in the legend. Lymphomegaly or presence of enlarged lymph nodes were observed weekly and noted.
Mice are tracked on an individual basis.
Vehicle alone is provided orally twice weekly (p.o.). Both proteasome inhibitors are suspended in the vehicle solution. […] In addition, urine proteinuria is determined for all animals.
Vehicle was 3% DMSO/10% Solutol/87% PBS.

Assay [2] has as its system MRL/lpr mice. The experiment in a line: Urinalysis: total urine protein (proteinuria), MRL/lpr mice. On the procedure: Urine samples are acid precipitated for total protein recovery and analysis. Samples for which enough urine remained are used for Uristix® leukouria analysis. Briefly, a standard protein solution is prepared from normal mouse sera and is used as a standard for mouse urinary protein assay by turbidity. Standard preparation is as follows: 0, 5, 10, 15, 20, 30, 40, and 50 μL of a 4 mg/mL mouse sera standard protein solution as provided in the kit are added in duplicate into two columns. PBS is added to individual wells to adjust the final volume to 50 μL. For urine sample preparation, urine samples are centrifuged at 9880×g for 3 minutes using a tabletop micro-centrifuge. Urine supernatant (1-50 μL) is added in duplicate. PBS is added to adjust the volume to 50 μL total. For the turbidity assay: 25 μL of 0.1 N HCl is added into blank columns and 250 μL of 3% sulfosalicyclic acid into the test columns. The microplate is incubated for 10 minutes at RT and plates are read using an ELISA reader with single beam at 450 nm. For the Uristix® strip assay, strips are laid out and labeled. Twenty microliters of urine are placed onto each test strip square and incubated for at least 30 seconds before the result is recorded. For all total urine analysis plate-based assays, values below the limit of detection set by the lowest point along the standard or set by the manufacturer are considered out of range and are not estimated, but assumed the lowest point along the standard curve for that particular assay.

The subject of assay [3] is NZM mice. The assay can be described thus: Body weight progression, NZM mice (Example 2).
Assay [4] deals with NZM mice. The assay can be described thus: Antibody secreting B-cell Elispot (anti-chromatin, total IgG ASC), spleens of NZM mice (Example 2). On the procedure: FIG. 34 depicts the frequency of anti-chromatin antibody secreting cells in the spleens of NZM mice. NZM treated mice spleens were processed for splenocytes for ex vivo Elispot assays. Elispot wells were coated with 10 μg/mL of boiled chicken chromatin or ovalbumin protein. Fresh, whole splenocytes were added to each well at 50,000 cells per well in cell culture medium. Cells were incubated overnight at 37° C. Developed wells provided spots that were counted as frequency of ASCs per million splenocytes.
FIG. 35 depicts the frequency of total IgG antibody secreting cells in the spleens of NZM mice. NZM treated mice spleens were processed for splenocytes for ex vivo Elispot assays. Elispot wells were coated with 10 μg/mL of anti-mouse IgG, IgH, and IgL chains. Fresh, whole splenocytes were added to each well at 50,000 cells per well in cell culture medium. Cells were incubated overnight at 37° C. Developed wells provided spots that were counted as frequency of ASCs per million splenocytes.
B-cell Elispot components are ordered from MabTech (Nacka Strand, Sweden) and nitrocellulose IP filter plates are ordered from Millipore (Billerica, Mass.). Elispot wells are coated with either purified bovine thymus dsDNA (Sigma), purified bovine Smith antigen (GenWay) or boiled filtered purified chicken chromatin from lysed chicken red blood cells (Rockland, Gilbertsville, Pa.) at 10 μg/mL. Spleens are processed using glass homogenization (frosted slides). Dispersed cell contents are washed in sterile HBSS and RBCs lysed using 1×RBC lysis buffer (BioLegend, Cat #420301). Processed splenocytes are added to each well and are not stimulated with lipopolysaccharide (LPS) to avoid skewing of true ex vivo frequencies of antibody-secreting cell types (ASCs). Anti-mouse pan-IgG is used as a positive control for total IgG producing ASCs and is used to normalize results. Frequencies for each antigen are identified in an initial test phase for each model. For chromatin and total IgG only, 30,000 splenocytes are added to each well; for Smith antigen and dsDNA, 500,000 cells are added to each well. Different numbers of splenocytes are added for different antigens due to saturation limits of spot frequencies per well. B-cell Elispots are incubated overnight at 37° C. To develop each assay, secondary antibody is added to each well, incubated, washed and alkaline phosphatase strepavidin (Jackson ImmunoResearch, West Grove, Pa.) is used as the conjugate; substrate used is BCIP-NBT (MabTech, Cincinnati, Ohio). Plates are developed until spots are visible. All Elispot analyses are performed using an Immunospot C.T.L. scanner and Biospot software (Cellular Technology Ltd., Shaker Heights, Ohio). Results are shown as values from which media and cells only wells are subtracted. Some values are negative due to high background.

For `C[C@@H]1C[C@H]2[C@@H]3CCC4=CC(=O)C=C[C@]4(C)[C@@]3(F)[C@@H](O)C[C@]2(C)[C@@]1(O)C(=O)CO` [dexamethasone, Dexamethasone, reference compound], the “AUC lymphomegaly, percent of non enlarged lymph nodes relative to vehicle” value in the assay on MRL/lpr mice [1] (G6: 1.5 mg/kg ip, 3× wk) was 22%. In addition, in the assay with MRL/lpr mice [2] (G6: 1.5 mg/kg ip, 3× wk), the “Urine AUC proteinuria, percent change vs vehicle” value is −46%. Also, the “Body mass AUC, percent change vs vehicle” value with NZM mice [3] (G5 1.5 mg/kg ip, 3× wk) is given as −1%. Also, in the assay on NZM mice [4] (G5 1.5 mg/kg ip, 3× wk), the “ASC chromatin EOS, percent change vs vehicle” value is listed as −42% and the “ASC total IgG EOS, percent change vs vehicle” value is reported as “+19%”. Besides, the “p, frequency of total IgG antibody secreting cells in spleen vs G7 CTX 50 mg/kg 1× wk ip” value with NZM mice [4] (G8 1.5 mg/kg 3× wk ip) is given as “p < 0.01”.

Consider `CC(C)C[C@H](NC(=O)[C@H](Cc1ccccc1)NC(=O)c1cnccn1)B(O)O` [bortezomib, reference compound], for which the “AUC lymphomegaly, percent of non enlarged lymph nodes relative to vehicle” value in the assay on MRL/lpr mice [1] (G4: 0.5 mg/kg iv, 1× wk) came out at 13%; in the assay on MRL/lpr mice [1] (G5: 0.3 mg/kg iv, 2× wk) it was 21%. In addition, in the assay on MRL/lpr mice [1] (bortezomib treatment groups), the effect on lymphomegaly result is listed as “did not significantly reduce lymphomegaly”. The “Urine AUC proteinuria, percent change vs vehicle” value was −55% with MRL/lpr mice [2] (G4: 0.5 mg/kg iv, 1× wk) and −50% with MRL/lpr mice [2] (G5: 0.3 mg/kg iv, 2× wk). The “proteinuria decrease relative to vehicle” value in the assay on MRL/lpr mice [2] (treated weekly with bortezomib) came out at 55%. For the same molecule, the “Body mass AUC, percent change vs vehicle” value is “+13%” in the assay on NZM mice [3] (G3 0.3 mg/kg ip, 1× wk) and “+11%” in the assay on NZM mice [3] (G4 0.3 mg/kg ip, 2× wk). Also, the “ASC chromatin EOS, percent change vs vehicle” value in the assay with NZM mice [4] (G3 0.3 mg/kg ip, 1× wk) is given as −46%; with NZM mice [4] (G4 0.3 mg/kg ip, 2× wk), −74%. Also, the “ASC total IgG EOS, percent change vs vehicle” value in the assay with NZM mice [4] (G3 0.3 mg/kg ip, 1× wk) is reported as −1%; with NZM mice [4] (G4 0.3 mg/kg ip, 2× wk) it was −31%.

`CC(C)C[C@H](NC(=O)[C@@H](NC(=O)c1cccc(-c2ccccc2)n1)[C@@H](C)O)B(O)O` [COMPOUND A, [(1R)-1-[[(2S,3R)-3-hydroxy-2-[6-phenyl-pyridine-2-carbonyl)amino]-1-oxobutyl]amino]-3-methylbutylboronic acid]: the “AUC lymphomegaly, percent of non enlarged lymph nodes relative to vehicle” value is 71% in the assay with MRL/lpr mice [1] (G1: 3 mg/kg iv, 1× wk); 34% with MRL/lpr mice [1] (G2: 3 mg/kg iv, 2× wk); 9% with MRL/lpr mice [1] (G3: 10 mg/kg po, 2× wk). In addition, the figures for the “lymphomegaly decrease compared to vehicle” value in the assay with MRL/lpr mice [1] (first value (G1: 3 mg/kg 1× wk)) and in the assay on MRL/lpr mice [1] (second value (G2: 3 mg/kg 2× wk)) were 71% and 34%, respectively. The “Urine AUC proteinuria, percent change vs vehicle” value in the assay with MRL/lpr mice [2] (G1: 3 mg/kg iv, 1× wk) is listed as −60%; in the assay with MRL/lpr mice [2] (G2: 3 mg/kg iv, 2× wk), −70%; with MRL/lpr mice [2] (G3: 10 mg/kg po, 2× wk), −71%. Moreover, the “total urine protein reduction relative to vehicle” value turned out to be 60% with MRL/lpr mice [2] (Group 1), 70% with MRL/lpr mice [2] (Group 2) and 71% with MRL/lpr mice [2] (Group 3). For the same molecule, the “Body mass AUC, percent change vs vehicle” value in the assay on NZM mice [3] (G1 3 mg/kg ip, 1× wk) is on record as “+9%”; in the assay on NZM mice [3] (G2 3 mg/kg ip, 2× wk) it was “+10%”. For the same molecule, the “body weight increase compared to vehicle” value with NZM mice [3] (G1: 3 mg/kg ip once per week) was determined as 9%; with NZM mice [3] (G2: 3 mg/kg ip twice weekly), 10%. Besides, in the assay on NZM mice [4] (COMPOUND A groups), the “anti-chromatin ASC decrease vs vehicle” value is on record as 96-100%. The figures for the “p, frequency of anti-chromatin antibody secreting cells in spleen vs G5 Bortezomib 0.3 mg/kg 1× wk ip” value in the assay on NZM mice [4] (G1 3 mg/kg 1× wk ip) and in the assay with NZM mice [4] (G2 3 mg/kg 2× wk ip) were “p < 0.001” and “P < 0.01”, respectively. The entries for the “p, frequency of anti-chromatin antibody secreting cells in spleen vs G6 Bortezomib 0.3 mg/kg 2× wk ip” value in the assay with NZM mice [4] (G1 3 mg/kg 1× wk ip) and with NZM mice [4] (G2 3 mg/kg 2× wk ip) were “p < 0.01” and “p < 0.05”, respectively. Also, the “p, frequency of anti-chromatin antibody secreting cells in spleen vs G8 Dex 1.5 mg/kg 3× wk ip” value in the assay on NZM mice [4] (G1 3 mg/kg 1× wk ip) is reported as “p < 0.01”. Also, the “p, frequency of anti-chromatin antibody secreting cells in spleen vs G9 Vehicle 1× wk ip” value in the assay with NZM mice [4] (G1 3 mg/kg 1× wk ip) and with NZM mice [4] (G2 3 mg/kg 2× wk ip) was “p < 0.01” in each case. Besides, the entries for the “p, frequency of total IgG antibody secreting cells in spleen vs G5 Bortezomib 0.3 mg/kg 1× wk ip” value in the assay with NZM mice [4] (G1 3 mg/kg 1× wk ip) and with NZM mice [4] (G2 3 mg/kg 2× wk ip) were “p < 0.01” and “p < 0.001”, respectively. The “p, frequency of total IgG antibody secreting cells in spleen vs G7 CTX 50 mg/kg 1× wk ip” value in the assay with NZM mice [4] (G1 3 mg/kg 1× wk ip) and in the assay with NZM mice [4] (G2 3 mg/kg 2× wk ip) was “p < 0.01” each time. In addition, the “p, frequency of total IgG antibody secreting cells in spleen vs G8 Dex 1.5 mg/kg 3× wk ip” value in the assay with NZM mice [4] (G1 3 mg/kg 1× wk ip) and with NZM mice [4] (G2 3 mg/kg 2× wk ip) was “p < 0.01” throughout. For the same molecule, the “p, frequency of total IgG antibody secreting cells in spleen vs G9 Vehicle 1× wk ip” value in the assay on NZM mice [4] (G1 3 mg/kg 1× wk ip) was “p < 0.05”; in the assay on NZM mice [4] (G2 3 mg/kg 2× wk ip) it was “p < 0.01”. Also, the “ASC chromatin EOS, percent change vs vehicle” value is −96% in the assay with NZM mice [4] (G1 3 mg/kg ip, 1× wk) and −100% with NZM mice [4] (G2 3 mg/kg ip, 2× wk). The “ASC total IgG EOS, percent change vs vehicle” value is reported as −62% with NZM mice [4] (G1 3 mg/kg ip, 1× wk) and −67% with NZM mice [4] (G2 3 mg/kg ip, 2× wk). In addition, the “total IgG producing ASC decrease vs vehicle” value in the assay on NZM mice [4] (spleen) is 62-67%.
